In the supplement of paper PMC11208160:

Test: recombinant barcode read abundance after kanamycin selection (control-corrected) (log10(CPM+1)); higher = more efficient recombination; sequences stand for … in AGTGCAGAGAAAATCGGCCAGTTTTCTCTGCCTGCAGTCCGCATGCCGT…ATTTATGCAGCGGACTGCCTTTCTCCCAAAGTGATAAACCGGACAGTATCATGGACCGGTTTTCCCGGTAATCCGTATTTGCAAGGTTGGTTTCACT; site = the 11-nt target
Procedure: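 Same pooled E. coli target screen (IS621 bridge recombinase, kanamycin selection, control-corrected CPM, mean of 2 biological replicates). Here the two core-binding nucleotides of the LTG and RTG of the bridge RNA target-binding loop are mutated. Target and donor CT cores are held constant, and the other 9 guide positions match the target. The target is read from the library oligo sequence. Molecule = full bridge RNA written as DNA: nt 1-80 from the library oligo, rest WT scaffold.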

AAACATGGCTGGGTTCTAACCTGTTGCCTGC [AAACATGCTAG_LTGcore_GC_RTGcore_GC] (site AAACATGCTAG) (LTG core: GC, RTG core: GC)
recombinant barcode read abundance (log10): 0.233

AAACATGTGTGGGTTCTAACCTGTTGCCTAG [AAACATGCTAG_LTGcore_TG_RTGcore_CT] (site AAACATGCTAG) (LTG core: TG, RTG core: CT)
recombinant barcode read abundance (log10): 0.0752

AAACATGTTTGGGTTCTAACCTGTTGCCTAA [AAACATGCTAG_LTGcore_TT_RTGcore_TT] (site AAACATGCTAG) (LTG core: TT, RTG core: TT)
recombinant barcode read abundance (log10): 0.632

ACGGGACAGTGGGTTCTAACCTGTTGCAGAG [ACGGGACCTCT_LTGcore_AG_RTGcore_CT] (site ACGGGACCTCT) (LTG core: AG, RTG core: CT)
recombinant barcode read abundance (log10): 0.111

ACGGGACCATGGGTTCTAACCTGTTGCAGAG [ACGGGACCTCT_LTGcore_CA_RTGcore_CT] (site ACGGGACCTCT) (LTG core: CA, RTG core: CT)
recombinant barcode read abundance (log10): 2.09

ACGGGACCATGGGTTCTAACCTGTTGCAGTG [ACGGGACCTCT_LTGcore_CA_RTGcore_CA] (site ACGGGACCTCT) (LTG core: CA, RTG core: CA)
recombinant barcode read abundance (log10): 0.127

ACGGGACCCTGGGTTCTAACCTGTTGCAGAG [ACGGGACCTCT_LTGcore_CC_RTGcore_CT] (site ACGGGACCTCT) (LTG core: CC, RTG core: CT)
recombinant barcode read abundance (log10): 2.22

ACGGGACCTTGGGTTCTAACCTGTTGCAGTT [ACGGGACCTCT_LTGcore_CT_RTGcore_AA] (site ACGGGACCTCT) (LTG core: CT, RTG core: AA)
recombinant barcode read abundance (log10): 0.29

ACGGGACGCTGGGTTCTAACCTGTTGCAGGC [ACGGGACCTCT_LTGcore_GC_RTGcore_GC] (site ACGGGACCTCT) (LTG core: GC, RTG core: GC)
recombinant barcode read abundance (log10): 0.151

ACGGGACGTTGGGTTCTAACCTGTTGCAGAC [ACGGGACCTCT_LTGcore_GT_RTGcore_GT] (site ACGGGACCTCT) (LTG core: GT, RTG core: GT)
recombinant barcode read abundance (log10): 0.0225

ACGGGACTCTGGGTTCTAACCTGTTGCAGAG [ACGGGACCTCT_LTGcore_TC_RTGcore_CT] (site ACGGGACCTCT) (LTG core: TC, RTG core: CT)
recombinant barcode read abundance (log10): 0.0751

AGGAGGTCTTGGGTTCTAACCTGTTGCCTTT [AGGAGGTCTAG_LTGcore_CT_RTGcore_AA] (site AGGAGGTCTAG) (LTG core: CT, RTG core: AA)
recombinant barcode read abundance (log10): 1.32

AGGAGGTGGTGGGTTCTAACCTGTTGCCTAG [AGGAGGTCTAG_LTGcore_GG_RTGcore_CT] (site AGGAGGTCTAG) (LTG core: GG, RTG core: CT)
recombinant barcode read abundance (log10): 0.165

AGGAGGTGTTGGGTTCTAACCTGTTGCCTAG [AGGAGGTCTAG_LTGcore_GT_RTGcore_CT] (site AGGAGGTCTAG) (LTG core: GT, RTG core: CT)
recombinant barcode read abundance (log10): 0

AGGCCTCAATGGGTTCTAACCTGTTGCCTAG [AGGCCTCCTAG_LTGcore_AA_RTGcore_CT] (site AGGCCTCCTAG) (LTG core: AA, RTG core: CT)
recombinant barcode read abundance (log10): 0.0132

AGGCCTCCATGGGTTCTAACCTGTTGCCTTG [AGGCCTCCTAG_LTGcore_CA_RTGcore_CA] (site AGGCCTCCTAG) (LTG core: CA, RTG core: CA)
recombinant barcode read abundance (log10): 0.128

AGGCCTCCTTGGGTTCTAACCTGTTGCCTAT [AGGCCTCCTAG_LTGcore_CT_RTGcore_AT] (site AGGCCTCCTAG) (LTG core: CT, RTG core: AT)
recombinant barcode read abundance (log10): 0.576

AGGCCTCCTTGGGTTCTAACCTGTTGCCTCT [AGGCCTCCTAG_LTGcore_CT_RTGcore_AG] (site AGGCCTCCTAG) (LTG core: CT, RTG core: AG)
recombinant barcode read abundance (log10): 0.369

AGGCCTCCTTGGGTTCTAACCTGTTGCCTTC [AGGCCTCCTAG_LTGcore_CT_RTGcore_GA] (site AGGCCTCCTAG) (LTG core: CT, RTG core: GA)
recombinant barcode read abundance (log10): 0.109

AGGCCTCGCTGGGTTCTAACCTGTTGCCTGC [AGGCCTCCTAG_LTGcore_GC_RTGcore_GC] (site AGGCCTCCTAG) (LTG core: GC, RTG core: GC)
recombinant barcode read abundance (log10): 0.137

AGGCCTCTATGGGTTCTAACCTGTTGCCTAG [AGGCCTCCTAG_LTGcore_TA_RTGcore_CT] (site AGGCCTCCTAG) (LTG core: TA, RTG core: CT)
recombinant barcode read abundance (log10): 0.0484

AGGCCTCTCTGGGTTCTAACCTGTTGCCTAG [AGGCCTCCTAG_LTGcore_TC_RTGcore_CT] (site AGGCCTCCTAG) (LTG core: TC, RTG core: CT)
recombinant barcode read abundance (log10): 0.137

AGGCGGGACTGGGTTCTAACCTGTTGCGGAG [AGGCGGGCTCC_LTGcore_AC_RTGcore_CT] (site AGGCGGGCTCC) (LTG core: AC, RTG core: CT)
recombinant barcode read abundance (log10): 0.555

AGGCGGGACTGGGTTCTAACCTGTTGCGGGT [AGGCGGGCTCC_LTGcore_AC_RTGcore_AC] (site AGGCGGGCTCC) (LTG core: AC, RTG core: AC)
recombinant barcode read abundance (log10): 0.011

AGGCGGGCCTGGGTTCTAACCTGTTGCGGGG [AGGCGGGCTCC_LTGcore_CC_RTGcore_CC] (site AGGCGGGCTCC) (LTG core: CC, RTG core: CC)
recombinant barcode read abundance (log10): 0.126

AGGCGGGCTTGGGTTCTAACCTGTTGCGGAC [AGGCGGGCTCC_LTGcore_CT_RTGcore_GT] (site AGGCGGGCTCC) (LTG core: CT, RTG core: GT)
recombinant barcode read abundance (log10): 0.13

AGGCGGGCTTGGGTTCTAACCTGTTGCGGAT [AGGCGGGCTCC_LTGcore_CT_RTGcore_AT] (site AGGCGGGCTCC) (LTG core: CT, RTG core: AT)
recombinant barcode read abundance (log10): 0.513

AGGCGGGCTTGGGTTCTAACCTGTTGCGGCG [AGGCGGGCTCC_LTGcore_CT_RTGcore_CG] (site AGGCGGGCTCC) (LTG core: CT, RTG core: CG)
recombinant barcode read abundance (log10): 0.146

AGGCGGGCTTGGGTTCTAACCTGTTGCGGGA [AGGCGGGCTCC_LTGcore_CT_RTGcore_TC] (site AGGCGGGCTCC) (LTG core: CT, RTG core: TC)
recombinant barcode read abundance (log10): 0.253

AGGCGGGCTTGGGTTCTAACCTGTTGCGGTC [AGGCGGGCTCC_LTGcore_CT_RTGcore_GA] (site AGGCGGGCTCC) (LTG core: CT, RTG core: GA)
recombinant barcode read abundance (log10): 0.246

AGGCGGGGATGGGTTCTAACCTGTTGCGGTC [AGGCGGGCTCC_LTGcore_GA_RTGcore_GA] (site AGGCGGGCTCC) (LTG core: GA, RTG core: GA)
recombinant barcode read abundance (log10): 0.133

AGGCGGGGGTGGGTTCTAACCTGTTGCGGAG [AGGCGGGCTCC_LTGcore_GG_RTGcore_CT] (site AGGCGGGCTCC) (LTG core: GG, RTG core: CT)
recombinant barcode read abundance (log10): 0.101

AGGCGGGGTTGGGTTCTAACCTGTTGCGGAG [AGGCGGGCTCC_LTGcore_GT_RTGcore_CT] (site AGGCGGGCTCC) (LTG core: GT, RTG core: CT)
recombinant barcode read abundance (log10): 0.871

AGGCGGGTATGGGTTCTAACCTGTTGCGGTA [AGGCGGGCTCC_LTGcore_TA_RTGcore_TA] (site AGGCGGGCTCC) (LTG core: TA, RTG core: TA)
recombinant barcode read abundance (log10): 0.364

AGGCGGGTTTGGGTTCTAACCTGTTGCGGAA [AGGCGGGCTCC_LTGcore_TT_RTGcore_TT] (site AGGCGGGCTCC) (LTG core: TT, RTG core: TT)
recombinant barcode read abundance (log10): 0.299

AGGCGGTAATGGGTTCTAACCTGTTGCTTAG [AGGCGGTCTAA_LTGcore_AA_RTGcore_CT] (site AGGCGGTCTAA) (LTG core: AA, RTG core: CT)
recombinant barcode read abundance (log10): 0.371

AGGCGGTAATGGGTTCTAACCTGTTGCTTTT [AGGCGGTCTAA_LTGcore_AA_RTGcore_AA] (site AGGCGGTCTAA) (LTG core: AA, RTG core: AA)
recombinant barcode read abundance (log10): 0.0996

AGGCGGTCTTGGGTTCTAACCTGTTGCTTCC [AGGCGGTCTAA_LTGcore_CT_RTGcore_GG] (site AGGCGGTCTAA) (LTG core: CT, RTG core: GG)
recombinant barcode read abundance (log10): 0.0963

AGGCGGTCTTGGGTTCTAACCTGTTGCTTGT [AGGCGGTCTAA_LTGcore_CT_RTGcore_AC] (site AGGCGGTCTAA) (LTG core: CT, RTG core: AC)
recombinant barcode read abundance (log10): 0.127

AGGCGGTCTTGGGTTCTAACCTGTTGCTTTT [AGGCGGTCTAA_LTGcore_CT_RTGcore_AA] (site AGGCGGTCTAA) (LTG core: CT, RTG core: AA)
recombinant barcode read abundance (log10): 0.0668

AGGCGGTGCTGGGTTCTAACCTGTTGCTTAG [AGGCGGTCTAA_LTGcore_GC_RTGcore_CT] (site AGGCGGTCTAA) (LTG core: GC, RTG core: CT)
recombinant barcode read abundance (log10): 0.419

AGGCGGTGTTGGGTTCTAACCTGTTGCTTAG [AGGCGGTCTAA_LTGcore_GT_RTGcore_CT] (site AGGCGGTCTAA) (LTG core: GT, RTG core: CT)
recombinant barcode read abundance (log10): 0.203

AGGCGGTTGTGGGTTCTAACCTGTTGCTTAG [AGGCGGTCTAA_LTGcore_TG_RTGcore_CT] (site AGGCGGTCTAA) (LTG core: TG, RTG core: CT)
recombinant barcode read abundance (log10): 0.113

AGTCTTAAGTGGGTTCTAACCTGTTGCCAAG [AGTCTTACTTG_LTGcore_AG_RTGcore_CT] (site AGTCTTACTTG) (LTG core: AG, RTG core: CT)
recombinant barcode read abundance (log10): 0.102
